The NIST ThermoML archive (doi:10.1021/acs.jced.5b00670)

How the values were obtained:
[1] = 298.15 K, 101.33 kPa, Liquid; for viscosity: Concentric cylinders viscometry; for mass density: Vibrating tube method
[2] = mn = molality of the nth substance listed, in mol/kg; details: 298.15 K, 101.33 kPa, Liquid, Alternating current cell with electrodes

CC#N [acetonitrile]
[1]
Details | mass density [kg/m3] | viscosity [mPa·s]
– | 776.68 | 0.34

NC=O [formamide]
[1]
Details | mass density [kg/m3] | viscosity [mPa·s]
– | 1129.22 | 3.3

CO [methanol]
[1]
Details | mass density [kg/m3] | viscosity [mPa·s]
– | 786.61 | 0.55

C[N+](=O)[O-] [nitromethane]
[1]
Details | mass density [kg/m3] | viscosity [mPa·s]
– | 1130.15 | 0.62

CCCC[P+](CCCC)(CCCC)CCCC.CS(=O)(=O)[O-] [tetrabutylphosphonium methanesulfonate] + CC#N
[2]
Details | molar conductivity [S·m2/mol]
m1 = 0.000975 | 0.0159
m1 = 0.001787 | 0.0156
m1 = 0.002451 | 0.0154
m1 = 0.003035 | 0.0153
m1 = 0.00354 | 0.0151
m1 = 0.00398 | 0.015
m1 = 0.004717 | 0.0149
m1 = 0.005305 | 0.0148
m1 = 0.006188 | 0.0146
m1 = 0.007186 | 0.0145
m1 = 0.00808 | 0.0143
m1 = 0.008774 | 0.0142

CCCC[P+](CCCC)(CCCC)CCCC.CS(=O)(=O)[O-] [tetrabutylphosphonium methanesulfonate] + CO
[2]
Details | molar conductivity [S·m2/mol]
m1 = 0.000912 | 0.00826
m1 = 0.001456 | 0.00793
m1 = 0.001998 | 0.00769
m1 = 0.002473 | 0.00752
m1 = 0.002947 | 0.00737
m1 = 0.003599 | 0.00721
m1 = 0.00425 | 0.007
m1 = 0.004926 | 0.00686
m1 = 0.005759 | 0.0066
m1 = 0.006723 | 0.00645
m1 = 0.007795 | 0.0062
m1 = 0.008664 | 0.00603

CCCC[P+](CCCC)(CCCC)CCCC.CS(=O)(=O)[O-] [tetrabutylphosphonium methanesulfonate] + C[N+](=O)[O-]
[2]
Details | molar conductivity [S·m2/mol]
m1 = 0.000865 | 0.00765
m1 = 0.001335 | 0.00741
m1 = 0.00177 | 0.00723
m1 = 0.002409 | 0.00698
m1 = 0.002979 | 0.00674
m1 = 0.003623 | 0.00653
m1 = 0.004197 | 0.0063
m1 = 0.004926 | 0.00611
m1 = 0.005713 | 0.00588
m1 = 0.006624 | 0.00563
m1 = 0.007619 | 0.00541
m1 = 0.008608 | 0.00518

CCCC[P+](CCCC)(CCCC)CCCC.CS(=O)(=O)[O-] [tetrabutylphosphonium methanesulfonate] + NC=O
[2]
Details | molar conductivity [S·m2/mol]
m1 = 0.00084 | 0.00215
m1 = 0.001471 | 0.00201
m1 = 0.002032 | 0.00186
m1 = 0.002641 | 0.00177
m1 = 0.003191 | 0.00167
m1 = 0.003793 | 0.00159
m1 = 0.004583 | 0.00148
m1 = 0.005305 | 0.00139
m1 = 0.006146 | 0.0013
m1 = 0.007072 | 0.00119
m1 = 0.007937 | 0.00113
m1 = 0.008497 | 0.00107

CCCC[P+](CCCC)(CCCC)CCCC.CS(=O)(=O)[O-] [tetrabutylphosphonium methanesulfonate] + O
[2]
Details | molar conductivity [S·m2/mol]
m1 = 0.000818 | 0.00412
m1 = 0.001471 | 0.00388
m1 = 0.002032 | 0.00366
m1 = 0.002641 | 0.00348
m1 = 0.003191 | 0.00334
m1 = 0.003793 | 0.00317
m1 = 0.004583 | 0.003
m1 = 0.005305 | 0.00288
m1 = 0.006146 | 0.00274
m1 = 0.007072 | 0.00258
m1 = 0.007937 | 0.00245
m1 = 0.008497 | 0.0024

O [water]
Details | viscosity [mPa·s]
[1] | 0.89
